Test system: PBS pH 7.4 stability, 37 C, LC-MS/MS, 48 h
Test: Inhibitors of Bloom's syndrome helicase: PBS Stability Profiling Assay
Conditions: at 2 µM; hits give high values
Text: Survival of cells and the faithful propagation of the genome depend on elaborate mechanisms of detecting and repairing DNA damage. Treatment of advanced cancer relies on radiation therapy or chemotherapy, which kill cancer cells by causing extensive DNA damage. It is often found, that cancer cells develop resistance to therapy through enhanced activity of DNA repair functions; this has led to an increased interest in developing drugs that interfere with DNA repair, which could sensitize cancer cells to conventional therapy. Bloom syndrome helicase (BLM), is important in resolving abnormal DNA structures formed during replication or homologous recombination. Shutting down the expression of BLM leads to chromosomal instability and higher radiation sensitivity in cultured cells. After the completion of a qHTS campaign, secondary assays, and rounds of medicinal chemistry, a compound was identified to be further characterized through in vitro ADME assays. […]
2uM of compound is incubated in PBS buffer at pH 7; the reference compound is procaine. Compounds are incubated at 37 deg C for the pre-determined time periods and the when aliquots are removed. Samples are analyzed with LC-MS/MS.

O=C(Nc1ccc(F)c(C(F)(F)F)c1)Nc1nnc(-c2ccncc2)s1
percent remaining: 100%

Source: PubChem BioAssay AID504741 (National Center for Advancing Translational Sciences (NCATS), 2011)
